Source: ChEMBL document CHEMBL1132291, “Synthesis and serotonergic activity of substituted 2, N-benzylcarboxamido-5-(2-ethyl-1-dioxoimidazolidinyl)-N, N-dimethyltryptamine derivatives: novel antagonists for the vascular 5-HT(1B)-like receptor” (J Med Chem, 1999)

Experiments:
[1] = system: 5-hydroxytryptamine receptor 2A (Oryctolagus cuniculus); experiment: Binding affinity for 5-hydroxytryptamine 2A receptor of rabbit aorta ring preparations
[2] = system: 5-hydroxytryptamine receptor 1B (Oryctolagus cuniculus); experiment: Binding affinity against vascular 5-hydroxytryptamine 1B receptor, measured using ring preparations of rabbit saphenous vein (RbSV)
[3] = system: Adrenergic receptor alpha-1 (Oryctolagus cuniculus); experiment: Alpha-1 adrenergic receptor affinity using ring preparations of rabbit thoracic aorta (RbTA).
[4] = system: 5-hydroxytryptamine receptor 1B (Oryctolagus cuniculus); experiment: The vascular 5-hydroxytryptamine 1B receptor affinity was assessed using ring preparations of rabbit saphenous vein (RbSV).
[5] = target: T1, 5-hydroxytryptamine receptor 1A (Rattus norvegicus, UniProt P19327); experiment: Binding affinity against 5-hydroxytryptamine 1A receptor in rat cortex homogenates.; type: tissue-based
T1 sequence (P19327 whole entry): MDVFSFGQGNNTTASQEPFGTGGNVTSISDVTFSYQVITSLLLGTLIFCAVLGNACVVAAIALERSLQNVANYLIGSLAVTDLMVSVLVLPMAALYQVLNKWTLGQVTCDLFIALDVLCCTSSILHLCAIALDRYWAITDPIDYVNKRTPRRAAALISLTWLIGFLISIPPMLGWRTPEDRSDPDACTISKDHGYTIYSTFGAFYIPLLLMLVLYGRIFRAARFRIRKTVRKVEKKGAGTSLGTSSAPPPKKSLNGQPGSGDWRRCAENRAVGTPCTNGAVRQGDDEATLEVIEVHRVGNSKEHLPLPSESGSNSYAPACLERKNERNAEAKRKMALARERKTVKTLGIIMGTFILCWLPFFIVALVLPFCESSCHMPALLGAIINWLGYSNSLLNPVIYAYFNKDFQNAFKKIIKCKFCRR

[6] = target: T2, 5-hydroxytryptamine receptor 2C (Rattus norvegicus, UniProt P08909); experiment: Binding affinity against 5-hydroxytryptamine 2C receptor in rat cortex homogenates.; type: tissue-based
T2 sequence (P08909 whole entry): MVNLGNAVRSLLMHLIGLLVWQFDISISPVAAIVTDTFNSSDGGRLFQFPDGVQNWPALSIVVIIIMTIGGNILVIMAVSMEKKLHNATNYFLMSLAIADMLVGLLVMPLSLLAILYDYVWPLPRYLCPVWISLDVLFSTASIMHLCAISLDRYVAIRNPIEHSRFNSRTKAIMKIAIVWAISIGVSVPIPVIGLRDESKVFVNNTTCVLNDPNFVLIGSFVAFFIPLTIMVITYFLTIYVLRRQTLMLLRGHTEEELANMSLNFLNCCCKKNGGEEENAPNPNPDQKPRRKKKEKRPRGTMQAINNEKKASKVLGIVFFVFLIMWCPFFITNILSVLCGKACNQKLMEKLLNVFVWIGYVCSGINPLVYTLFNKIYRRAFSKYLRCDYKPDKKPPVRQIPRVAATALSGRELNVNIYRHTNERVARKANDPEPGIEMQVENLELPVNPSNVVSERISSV

[7] = system: 5-hydroxytryptamine receptor 1B (Oryctolagus cuniculus); experiment: The vascular 5-hydroxytryptamine 1B receptor affinity was assessed using ring preparations of rabbit saphenous vein(RbSV).

SMILES	pKB [2]	pKB [3]	other results
CC(NC(=O)c1[nH]c2ccc(CCN3C(=O)NC(C)(C)C3=O)cc2c1CCN(C)C)c1ccccc1 (stereo unspecified)	5.5	4.65	pKB [1]: 5.59
CN(C)CCc1c(C(=O)NCc2ccccc2)[nH]c2ccc(CCN3C(=O)NC(C)(c4ccccc4)C3=O)cc12 (stereo unspecified)	7.15	5.27	
CN(C)CCc1c(C(=O)NCc2ccc(Cl)c(Cl)c2)[nH]c2ccc(CCN3C(=O)NC(C)(C)C3=O)cc12	6.5	5	
CN(C)CCc1c(C(=O)NCCc2ccccc2)[nH]c2ccc(CCN3C(=O)NC(C)(C)C3=O)cc12	5.57		pKB [1]: 5.35
CN(C)CCc1c(C(=O)N(C)Cc2ccccc2)[nH]c2ccc(CCN3C(=O)NC(C)(C)C3=O)cc12	5.8	5.8	pKB [1]: 6.03
CN(C)CCc1c(C(=O)NCc2ccccc2)[nH]c2ccc(CCN3C(=O)CNC3=O)cc12	7.36	5.77	Ki [5]: 67.6 µM; pKB [1]: 6.09; Ki [6]: 1.91 µM
CONC(=O)c1[nH]c2ccc(CCN3C(=O)NC(C)(C)C3=O)cc2c1CCN(C)C	5.4	< 4.5	
CNC(=O)c1[nH]c2ccc(CCN3C(=O)CNC3=O)cc2c1CCN(C)C	5.94		pKB [1]: < 5
COc1cccc(CNC(=O)c2[nH]c3ccc(CCN4C(=O)NC(C)(C)C4=O)cc3c2CCN(C)C)c1	6.47	5.17	
CCCCNC(=O)c1[nH]c2ccc(CCN3C(=O)NC(C)(C)C3=O)cc2c1CCN(C)C	5.47		pKB [1]: < 5
CN(C)CCc1c(C(=O)N(C)C)[nH]c2ccc(CCN3C(=O)CNC3=O)cc12	< 5		pKB [1]: < 5
CN(C)CCc1c(C(=O)NCc2ccc(C(F)(F)F)cc2)[nH]c2ccc(CCN3C(=O)NC(C)(C)C3=O)cc12	6.2	< 5	
COc1ccc(CNC(=O)c2[nH]c3ccc(CCN4C(=O)NC(C)(C)C4=O)cc3c2CCN(C)C)cc1		4.73	pKB [7]: 6.54
CON(C)C(=O)c1[nH]c2ccc(CCN3C(=O)CNC3=O)cc2c1CCN(C)C	5.76		pKB [1]: 5.3
CN(C)CCc1c(C(=O)NCC(N)=O)[nH]c2ccc(CCN3C(=O)NC(C)(C)C3=O)cc12	< 5		
CN(C)CCc1c(C(=O)NN)[nH]c2ccc(CCN3C(=O)NC(C)(C)C3=O)cc12	5.48	< 4.5	

SMILES	pKB [2]	pKB [3]	other results
CN(C)CCc1c(C(=O)NCc2ccc(S(C)(=O)=O)cc2)[nH]c2ccc(CCN3C(=O)NC(C)(C)C3=O)cc12	5.91	4.52	
CN(C)CCc1c(C(=O)NCc2ccccc2)[nH]c2ccc(CCN3C(=O)N(C)C(C)(c4ccccc4)C3=O)cc12 (stereo unspecified)	7.19	5.5	
CN(C)CCc1c(C(=O)NCc2ccc(NS(C)(=O)=O)cc2)[nH]c2ccc(CCN3C(=O)NC(C)(C)C3=O)cc12	5.65	< 4.5	
CN(C)CCc1c(C(=O)NCc2ccc(-c3ccccc3)cc2)[nH]c2ccc(CCN3C(=O)NC(C)(C)C3=O)cc12	5.77	5	
C#CCNC(=O)c1[nH]c2ccc(CCN3C(=O)NC(C)(C)C3=O)cc2c1CCN(C)C	5.44	4.62	
CN(C)CCc1c(C(=O)NCc2ccccc2)[nH]c2ccc(CCN3C(=O)NC(C)(C)C3=O)cc12	7.09	5.2	Ki [5]: 14.8 µM; pKB [1]: 5.6; Ki [6]: 2.19 µM
CC(=O)Nc1cccc(CNC(=O)c2[nH]c3ccc(CCN4C(=O)NC(C)(C)C4=O)cc3c2CCN(C)C)c1	5.68	4.5	
CCCCNC(=O)c1[nH]c2ccc(CCN3C(=O)CNC3=O)cc2c1CCN(C)C	5.94		pKB [1]: 5.2
CN(C)CCc1c(C(=O)NCc2ccc(Cl)cc2)[nH]c2ccc(CCN3C(=O)CNC3=O)cc12	7.74	6.47	pKB [1]: 6.31
CN(C)CCc1c(C(=O)NCc2cccc(NS(C)(=O)=O)c2)[nH]c2ccc(CCN3C(=O)NC(C)(C)C3=O)cc12	5.67	4.51	
CN(C)CCc1c(C(N)=O)[nH]c2ccc(CCN3C(=O)CNC3=O)cc12	< 5		pKB [1]: < 5
Cc1ccc(CNC(=O)c2[nH]c3ccc(CCN4C(=O)NC(C)(C)C4=O)cc3c2CCN(C)C)cc1	7	6	
CN(C)CCc1c(C(=O)NCc2ccc(F)cc2)[nH]c2ccc(CCN3C(=O)NC(C)(C)C3=O)cc12	7.3	5.46	
CN(C)CCc1c(C(=O)NCc2ccccc2)[nH]c2ccc(CCN3C(=O)NC(c4ccccc4)(c4ccccc4)C3=O)cc12	6.44	5	
CCOC(=O)c1[nH]c2ccc(CCN3C(=O)CNC3=O)cc2c1CCN(C)C	7.42	5.43	pKB [1]: < 5
CN(C)CCc1c(C(=O)NCc2ccc(Cl)cc2)[nH]c2ccc(CCN3C(=O)NC(C)(C)C3=O)cc12	7.59	5.86	

More lines, main results first:

pKB [2]	pKB [3]	SMILES	other results
6.65	5.21	CN(C)CCc1c(C(=O)NCc2ccccc2N)[nH]c2ccc(CCN3C(=O)NC(C)(c4ccccc4)C3=O)cc12 (stereo unspecified)	
5.5		CN(C)CCc1c(C(=O)NCc2cccc3ccccc23)[nH]c2ccc(CCN3C(=O)NC(C)(C)C3=O)cc12	
	< 5	CC(=O)Nc1ccccc1CNC(=O)c1[nH]c2ccc(CCN3C(=O)NC(C)(C)C3=O)cc2c1CCN(C)C	pKB [4]: 6.04
6.61	5	CN(C)CCc1c(C(=O)NCc2ccccc2O)[nH]c2ccc(CCN3C(=O)NC(C)(C)C3=O)cc12	
6.45		CN(C)CCc1c(C(=O)NCc2cccc(Cl)c2)[nH]c2ccc(CCN3C(=O)NC(C)(C)C3=O)cc12	
6.19	4.52	CN(C)CCc1c(C(=O)NCc2ccc(N)cc2)[nH]c2ccc(CCN3C(=O)NC(C)(C)C3=O)cc12	
6.72	4.79	CN(C)CCc1c(C(=O)NCc2ccccc2N)[nH]c2ccc(CCN3C(=O)NC(C)(C)C3=O)cc12	
7.2	5.48	CN(C)CCc1c(C(=O)NCc2ccccc2)[nH]c2ccc(CCN3C(=O)NC4(CCCC4)C3=O)cc12	
5.21	4.86	CN(C)CCc1c(C(=O)Nc2ccccc2)[nH]c2ccc(CCN3C(=O)NC(C)(C)C3=O)cc12	
5.81	5.35	CN(C)CCc1c(C(=O)NCc2ccccc2Cl)[nH]c2ccc(CCN3C(=O)NC(C)(C)C3=O)cc12	
6.31	5.43	CN(C)CCc1c(C(=O)NCc2ccccc2N)[nH]c2ccc(CCN3C(=O)NC(c4ccccc4)(c4ccccc4)C3=O)cc12	
6.66	5.31	CN(C)CCc1c(C(=O)NCc2ccccc2)[nH]c2ccc(CCN3C(=O)C4CCCN4C3=O)cc12 (stereo unspecified)	
6.52	4.58	CN(C)CCc1c(C(=O)NCc2cccc(N)c2)[nH]c2ccc(CCN3C(=O)NC(C)(C)C3=O)cc12	
6.64	4.78	CN(C)CCc1c(C(=O)NCc2ccccc2N)[nH]c2ccc(CCN3C(=O)N(C)C(C)(c4ccccc4)C3=O)cc12 (stereo unspecified)	
6.67	5.73	CN(C)CCc1c(C(=O)NCc2ccccc2N)[nH]c2ccc(CCN3C(=O)CNC3=O)cc12	
